Experiments:
[1] = test system: NCI-H716 cells; assay: In vitro GLP-1 secretion-accelerating action: amount of active GLP-1 secreted (ELISA); format: cell-based; conditions: 1 hour; for Significant difference (p < 0.05) vs control group, amount of active GLP-1 secreted: 10 mM, Student's t-test; for Amount of active GLP-1 secreted (relative value to control group as 100), average value: cyclic dipeptide 10 mM with 10 μM Sitagliptin phosphate, group with no cyclic dipeptide = 100
Experimental: Among the cyclic dipeptides, 92 highly water-soluble cyclic dipeptides were used in the following experiment. In each well of a Poly-L-Lysine 96-well plate, NCI-H716 cells suspended in 100 μL of a DMEM (with 10% FBS, 2 mM glutamine, and 1% antibiotics added in advance) were seeded at 0.5×10^5 cells/well, and cultured in a CO2 incubator (manufactured by ESPEC CORP.) for 48 hours. After washing with PBS(+), 100 μL of a PBS(+) solution with each cyclic dipeptide at a final concentration of 10 mM and 10 μM of Sitagliptin phosphate added therein was added to the cells. After 1 hour, the resultant solution was recovered, and the amount of active GLP-1 in the solution was measured by using the ELISA kit. In the analysis, the amount of active GLP-1 for a group with no cyclic dipeptide added was defined as 100, and relative values thereto were used.

[2] = test system: C57/BL6J mice; assay: In vivo plasma GLP-1 level-increasing action: plasma active GLP-1 level (ELISA) after oral administration; conditions: 10 mg/kg oral; for Significant difference (p < 0.05) vs control group, plasma active GLP-1 level: 30 minutes, Student's t-test; for Plasma active GLP-1 level (relative value to control group as 100), average value: blood 30 minutes after, 0.5% CMC-Na group = 100
Procedure, shortened: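 Male C57BL/6J mice, habituated 1 week, deprived of food 5.5 h and water 2 h, then dosed orally with compound at 10 mg/kg in 0.5% CMC-Na. Vena cava blood taken 30 min later under anaesthesia, with heparin and sitagliptin added; plasma active GLP-1 by ELISA, relative to vehicle group set at 100.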

| SMILES | Significant difference (p < 0.05) vs control group, amount of active GLP-1 secreted ([1]; Table 4, Experiment 4) | Amount of active GLP-1 secreted (relative value to control group as 100), average value ([1]; Table 4, Experiment 4) | Significant difference (p < 0.05) vs control group, plasma active GLP-1 level ([2]; Table 7, Experiment 2) | Plasma active GLP-1 level (relative value to control group as 100), average value ([2]; Table 7, Experiment 2) | also measured |
| --- | --- | --- | --- | --- | --- |
| O=C(O)C[C@@H]1NC(=O)[C@@H]2CCCN2C1=O [compound 48, Cyclo(Asp-Pro)] | – | – | – | – | Significant difference (p < 0.05) vs control group, amount of active GLP-1 secreted ([1]; Table 2, Experiment 2): Yes; Amount of active GLP-1 secreted (relative value to control group as 100), average value ([1]; Table 2, Experiment 2): 199; Significant difference (p < 0.05) vs control group, plasma active GLP-1 level ([2]; Table 6, Experiment 1): No; Plasma active GLP-1 level (relative value to control group as 100), average value ([2]; Table 6, Experiment 1): 110 |
| O=C1NC(Cc2c[nH]c3ccccc23)C(=O)NC1Cc1cnc[nH]1 (stereo not drawn) [compound 60, Cyclo(Trp-His)] | – | – | – | – | Significant difference (p < 0.05) vs control group, amount of active GLP-1 secreted ([1]; Table 2, Experiment 2): Yes; Amount of active GLP-1 secreted (relative value to control group as 100), average value ([1]; Table 2, Experiment 2): 260; Significant difference (p < 0.05) vs control group, plasma active GLP-1 level ([2]; Table 6, Experiment 1): No; Plasma active GLP-1 level (relative value to control group as 100), average value ([2]; Table 6, Experiment 1): 129 |
| NCCCCC1NC(=O)C(Cc2ccccc2)NC1=O (stereo not drawn) [compound 63, cyclo-lysyl-phenylalanine] | – | – | – | – | Significant difference (p < 0.05) vs control group, amount of active GLP-1 secreted ([1]; Table 2, Experiment 2): Yes; Amount of active GLP-1 secreted (relative value to control group as 100), average value ([1]; Table 2, Experiment 2): 220; Significant difference (p < 0.05) vs control group, plasma active GLP-1 level ([2]; Table 6, Experiment 1): Yes; Plasma active GLP-1 level (relative value to control group as 100), average value ([2]; Table 6, Experiment 1): 206 |
| CC(O)C1NC(=O)C(C(C)O)NC1=O (stereo not drawn) [compound 164, cyclo-threonyl-threonine] | – | – | – | – | Significant difference (p < 0.05) vs control group, amount of active GLP-1 secreted ([1]; Table 3, Experiment 3): Yes; Amount of active GLP-1 secreted (relative value to control group as 100), average value ([1]; Table 3, Experiment 3): 162; Significant difference (p < 0.05) vs control group, plasma active GLP-1 level ([2]; Table 15, Experiment 10): Yes; Plasma active GLP-1 level (relative value to control group as 100), average value ([2]; Table 15, Experiment 10): 282 |
| NC(=O)CC1NC(=O)C(CC(N)=O)NC1=O (stereo not drawn) [compound 173, Cyclo(Asn-Asn)] | Yes | 255 | – | – | Significant difference (p < 0.05) vs control group, plasma active GLP-1 level ([2]; Table 15, Experiment 10): No; Plasma active GLP-1 level (relative value to control group as 100), average value ([2]; Table 15, Experiment 10): 123 |
| NC(=O)CCC1NC(=O)C(CC(N)=O)NC1=O (stereo not drawn) [compound 174, Cyclo(Gln-Asn)] | Yes | 305 | – | – | Significant difference (p < 0.05) vs control group, plasma active GLP-1 level ([2]; Table 15, Experiment 10): No; Plasma active GLP-1 level (relative value to control group as 100), average value ([2]; Table 15, Experiment 10): 168 |
| CC[C@H](C)[C@@H]1NC(=O)[C@H](CCC(N)=O)NC1=O [compound 182, cyclo-glutaminyl-isoleucine] | Yes | 445 | Yes | 188 | – |
| C[C@@H]1NC(=O)[C@@H]2CCCN2C1=O [compound 187, cyclo-L-alanyl-proline] | Yes | 1186 | Yes | 217 | – |
| NC(=O)CC[C@@H]1NC(=O)[C@H](Cc2cnc[nH]2)NC1=O [compound 191, cyclo-glutaminyl-histidine] | Yes | 743 | Yes | 247 | – |
| O=C(O)C[C@@H]1NC(=O)[C@H](CO)NC1=O [compound 193, cyclo-aspartyl-serine] | Yes | 509 | Yes | 266 | – |
| CC(C)[C@@H]1NC(=O)[C@H](CCCN=C(N)N)NC1=O [compound 194, cyclo-arginyl-valine] | Yes | 498 | Yes | 237 | – |
| CSCC[C@@H]1NC(=O)[C@H](CCCNC(=N)N)NC1=O [compound 199, cyclo-methionyl-arginine] | Yes | 652 | Yes | 217 | – |
| NC(N)=NCCCC1NC(=O)C(CC(=O)O)NC1=O (stereo not drawn) [compound 207, cyclo-arginyl-aspartic acid] | Yes | 1255 | Yes | 266 | – |
| NC(N)=NCCC[C@@H]1NC(=O)[C@@H]2CCCN2C1=O [compound 209, cyclo-arginyl-proline] | Yes | 441 | Yes | 315 | – |
| NC(=O)CC1NC(=O)CNC1=O (stereo not drawn) [compound 215, cyclo-asparaginyl-glycine] | Yes | 611 | Yes | 305 | – |

From US20170143701A1, “CARBOHYDRATE METABOLISM-AMELIORATING AGENT” (SUNTORY HOLDINGS LIMITED, priority 2014, published 2017)
